Here are results for 11 compounds from patent US20030162783A1 (priority 1999, published 2003).

Each structure is given as a SMILES string. Where only a bound is given, the exact number is not on record here.

Usually Ki stands for the equilibrium dissociation constant of an inhibitor or competing ligand from its target. Higher therefore signals lower affinity. The term melting point denotes the temperature of the solid-liquid transition.

Data set [1] addresses T1, NMDA receptor glycine site (Rattus norvegicus, UniProt P35439).
T1 construct: brain membranes bearing the receptor; tissue Analytical Biological Services Inc; host or cells: rat brain membranes (cerebral cortex and hippocampus, male Sprague Dawley rats)
In words: Test A: Inhibition of binding of [3H]-MDL105,519 to brain membranes. The following applies: [3H]MDL105,519 1.2 nM, brain membranes (rat and human membranes described; table does not say which). The text has this:
Test A: Inhibition of Binding of [^3H]-MDL105,519:
Binding of compounds to the NMDA receptor glycine site may be assessed by measuring the ability of test compounds to inhibit the binding of tritiated MDL105,519 to brain membranes bearing the receptor.
Briefly, fresh brain tissue including cerebral cortex and hippocampus from male Sprague Dawley rats was homogenized in 0.32 M sucrose and centrifuged at low speed to separate cellular membranes from other cellular components. The membranes were then washed 3 times using deionized water, followed by treatment with 0.04% Triton X-100. Finally, membranes were washed six times in 50 mM Tris citrate buffer, pH 7.4, and frozen at −80° C. until use.
[^3H]MDL105,519 (72 Ci/mmol) was purchased from Amersham. Cold MDL105,519 was purchased from Sigma/RBI. […] On the day of the experiment, brain membranes were thawed at room temperature and suspended in 50 mM tris acetate buffer, pH 7.4 (“TAB”). Seventy-five micro grams per milliliter protein (by using the BioRad dye) were used for competition binding. The experiments were carried out using 96-well plates. […] Non specific binding was determined by using 100 μM of unlabeled MDL105,519. […] After incubation, unbound [^3H]MDL105,519 was removed by filtration onto GF/B Unifilter plates using a Packard harvester. Filters were washed four times with ice cold TAB (total of 1.2 mL buffer). The plates were dried overnight at room temperature and bound radioactivity was measured on a Packard TopCount after the addition of 45 μL per well of the MICROSCINT O.
Human brain membranes were obtained from Analytical Biological Services Inc., and assays were performed as described for rat membranes.
Data was analyzed using a Microsoft Excel spreadsheet and GraphPad Prizm software and potency of compounds is expressed as the Ki (nM).

Data set [2] relates to Chronic Constriction Injury (CCI) rats, thermal hyperalgesia. In words: Test C: Neuropathic pain model (Chronic Constriction Injury), thermal hyperalgesia paw-withdrawal. In kind it is in vivo. As to conditions: Rattus norvegicus; for inhibition in vivo at 30 mg/kg/day / inhibition in vivo at 15 mg/kg/day: oral t.i.d., read-out: Test C (% Inh.): percent decrease in hyperalgesia at the MED; for minimal effective dose: po, 120 h, orally three times daily for 5 days, read-out: Test C MED (minimum effective dose). From the text:
Test C: Neuropathic Pain Model (Chronic Constriction Injury):
(Mean of vehicle group−Mean of compound group)/(Mean of vehicle group)×100

Data set [3] relates to formalin-induced nociceptive behaviors in rats. In words: Test B: Formalin test (formalin-induced nociceptive behaviors, paw flinches). In kind it is in vivo, rat. As to conditions: dosed three hours prior to formalin; for Test B First phase Dose (% Inh.): % inhibition of nociceptive response: first phase (0-5 min); for Test B Second phase Dose (% Inh.): % inhibition of nociceptive response: second phase (20-35 min). As for the experimental part:
In the test, two distinctive phases of formalin-induced behaviors are observed. A first phase response, caused by acute nociception to the noxious chemical (formalin) injected into the paw, occurs between zero and five minutes. […] After the quiescent period a second phase response, caused by sensitization of the central neurons in the dorsal horn, occurs after 15 minutes and lasts up to 60 minutes. Sensitization of the central neurons in the spine augments a noxious afferent input and causes a stronger pain barrage to be transmitted to the brain. Therefore, inhibition of the second phase response indicates a central mechanism of drug action.
The procedure for the formalin test is as follows: male rats are placed in a plexiglass chamber and observed for 30-45 min. to observe their baseline activity. Animals are either pretreated with vehicle or with different doses of a test compound. Animals are dosed with vehicle or test compound three hours prior to injection of 0.05 mL of sterile 1% formalin under the dorsal skin of a hind paw. The number of paw flinches (responses) during the first phase (0-5 min.) and the second phase (20-35 min.) are scored and recorded. Flinch response is compared with the mean score of a saline control group and calculated as percentage inhibition. […] First phase responses may be inhibited by compounds that act peripherally and by compounds that act centrally.
Student's t-test was used for statistical analysis to determine the significance of compound effects. Data are reported as a dose that yielded a % inhibition of a response.

`O=c1c2ccc(Cl)cc2[nH]c2c(O)nn(Cc3ccncn3)c(=O)c12` had an inhibitory constant (Ki) in data set [1] of 513 nM.
On to `CS(=O)(=O)O.O=c1c2ccc(Cl)cc2[nH]c2c(O)nn(Cc3ccncc3)c(=O)c12` [Ex. 1, 7-Chloro-4-hydroxy-2-(4-pyridylmethyl)-1,2,5,10-tetrahydropyridazino[4,5-b]quinoline-1,10-dione methanesulfonate], for which, in data set [2], the inhibition in vivo at 30 mg/kg/day came out at 71% and the minimal effective dose was 30 mg/kg/day. Further, in data set [3] (dose 70 (dose unit not given)), the “Test B First phase Dose (% Inh.): % inhibition of nociceptive response” value was 70 (52%) and the “Test B Second phase Dose (% Inh.): % inhibition of nociceptive response” value was 70 (57%).
Turning to `CS(=O)(=O)O.O=c1c2ccc(Cl)cc2[nH]c2c(O)nn(Cc3cccnc3)c(=O)c12` [Ex. 2, 7-Chloro-4-hydroxy-2-(3-pyridylmethyl)-1,2,5,10-tetrahydropyridazino[4,5-b]quinoline-1,10-dione Methanesulfonate], in data set [2], the inhibition in vivo at 30 mg/kg/day was determined as 59% and the minimal effective dose stood at 30 mg/kg/day. In data set [3] (dose 200 (dose unit not given)), the “Test B First phase Dose (% Inh.): % inhibition of nociceptive response” value is recorded as 200 (74%) and the “Test B Second phase Dose (% Inh.): % inhibition of nociceptive response” value is on record as 200 (71%).
In the case of `O=c1c2ccc(Cl)cc2[nH]c2c(O)nn(Cc3cc4ccccc4o3)c(=O)c12` [Ex. 4, 7-Chloro-4-hydroxy-2-benzo[d]furan-2-ylmethyl-1,2,5,10-tetrahydropyridazino[4,5-b]quinoline-1,10-dione], in data set [2], the inhibition in vivo at 30 mg/kg/day is 44% and the minimal effective dose stood at 30 mg/kg/day.
In turn, `O=c1c2ccc(Cl)cc2[nH]c2c(O)nn(Cc3ccnc4ccccc34)c(=O)c12` [Ex. 5, 7-Chloro-4-hydroxy-2-(quinolin-4-ylmethyl)-1,2,5,10-tetrahydropyridazino[4,5-b]quinoline-1,10-dione] registered a Ki in data set [1] of 371 nM. In other words, the sub-micromolar range.
Turning to `CS(=O)(=O)O.O=c1c2ccc(Cl)cc2[nH]c2c(O)nn(Cc3cnccn3)c(=O)c12` [Ex. 6, 7-Chloro-4-hydroxy-2-(pyrazin-2-ylmethyl)-1,2,5,10-tetrahydropyridazino[4,5-b]quinoline-1,10-dione methanesulfonate], in data set [2], the inhibition in vivo at 30 mg/kg/day worked out at 64% and the minimal effective dose came out at 30 mg/kg/day.
Take `O=c1c2ccc(Cl)cc2[nH]c2c(O)nn(Cc3ccco3)c(=O)c12` [Ex. 9, 7-Chloro-4hydroxy-2-(furan-2-ylmethyl)-1 2,5,10-tetrahydropyridazino[4,5-b]quinoline-1,10-dione]: the melting point is more than 265 °C. Further, the Ki in data set [1] came out at 61 nM. Further, in data set [2], the inhibition in vivo at 15 mg/kg/day came out at 77% and the minimal effective dose is 15 mg/kg/day. Besides, in data set [3] (dose 200 (dose unit not given)), the “Test B First phase Dose (% Inh.): % inhibition of nociceptive response” value is 200 (56%) and the “Test B Second phase Dose (% Inh.): % inhibition of nociceptive response” value was 200 (46%).
As for `O=c1c2ccc(Cl)cc2[nH]c2c(O)nn(Cc3cccs3)c(=O)c12` [Ex. 11, 7-Chloro-4-hydroxy-2-(thien-2-ylmethyl)-1,2,5,10-tetrahydropyridazino[4,5-b]quinoline-1,10dione], in data set [2], the inhibition in vivo at 15 mg/kg/day was -17% and the minimal effective dose was 15 mg/kg/day.
Regarding `O=c1c2ccc(Cl)cc2[nH]c2c(O)nn(Cc3ccsc3)c(=O)c12` [Ex. 12, 7-Chloro-4-hydroxy-2-(thien-3-ylmethyl)-1,2,5,10-tetrahydropyridazino[4,5-b]quinoline-1,10-dione], in data set [2], the inhibition in vivo at 15 mg/kg/day came to 17% and the minimal effective dose turned out to be 15 mg/kg/day.
Take `O=c1c2ccc(Cl)cc2[nH]c2c(O)nn(Cc3cc4ccccc4s3)c(=O)c12` [Ex. 13, 7-Chloro-4-hydroxy-2-(benzo[b]thien-2-ylmethyl)-1,2,5,10-tetrahydropyridazino[4,5-b]quinoline-1,10-dione]: in data set [2], the inhibition in vivo at 15 mg/kg/day was determined as 1% and the minimal effective dose turned out to be 15 mg/kg/day.
`O=c1c2ccc(Cl)cc2[nH]c2c(O)nn(Cc3ncc[nH]3)c(=O)c12` [Ex. 15, 7-Chloro-4-hydroxy-2-(imidazol-2-ylmethyl)-1,2,5,10-tetrahydropyridazino[4,5-b]quinoline-1,10-dione] yielded a Ki in data set [1] of 103 nM.
